Test results from PubChem BioAssay (NCI).
Where “and” joins values, the source holds several entries; their conditions need not be identical. Equal values may be shown once.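 Compound exposure: 48 hours, 5 concentrations, 96-well plates. GI50 = concentration required for 50% inhibition of growth. TGI marks complete inhibition of growth.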

Assays:
Assay in all cases: NCI tumour cell line growth inhibition, 48 h
[1] = tested on: NCI-H460 lung
[2] = tested on: MALME-3M melanoma
[3] = tested on: SF-539 CNS
[4] = tested on: SW-620 colon
[5] = tested on: UO-31 renal
[6] = tested on: ACHN renal
[7] = tested on: HCT-116 colon
[8] = tested on: U251 CNS
[9] = tested on: MDA-MB-435
[10] = tested on: MDA-MB-231 breast

SMILES | TGI [1] | TGI [2] | TGI [3] | TGI [4] | TGI [5] | TGI [6] | TGI [7] | TGI [8] | TGI [9] | GI50 [1] | GI50 [3] | GI50 [4] | GI50 [5] | GI50 [10] | TGI [10] | GI50 [6] | GI50 [7] | GI50 [8] | GI50 [2] | GI50 [9]
Cn1sc2ccccc2c1=S | 32.3 µM | 22.9 µM | 16.4 µM | 5.2 µM | 28.7 µM | 26.7 µM | 13.3 µM | 13.5 µM |  |  |  |  |  |  |  |  |  |  |  | 
COc1ccccc1NC(=O)C(CC(C(=O)Nc1ccccc1OC)/C(C)=N/NC(=O)c1ccccc1O)/C(C)=N/NC(=O)c1ccccc1O (stereo not drawn) | > 100 µM | > 100 µM | > 100 µM | > 100 µM | > 100 µM | > 100 µM |  | > 100 µM |  |  |  |  |  |  |  |  |  |  |  | 
COC(=O)C1=C(C)N(NC(N)=O)C(C)(O)C12CCOC2=O (stereo not drawn) | > 100 µM | > 100 µM | > 100 µM | > 100 µM | > 100 µM | > 100 µM | > 100 µM | > 100 µM |  |  |  |  |  |  |  |  |  |  |  | 
FC(F)(F)c1cccc(C2SCc3nc4ccccc4n32)c1 (stereo not drawn) |  | > 100 µM | > 100 µM | > 100 µM | > 100 µM | > 100 µM | > 100 µM | > 100 µM |  |  |  |  |  |  |  |  |  |  |  | 
COc1ccc(C2C3=C(COC3=O)Oc3cc4c(cc32)OCO4)cc1 (stereo not drawn) | > 100 µM | > 100 µM | 56.6 µM | > 100 µM | 74 µM | > 100 µM | > 100 µM | > 100 µM |  |  |  |  |  |  |  |  |  |  |  | 
CCCCCCCCCCCCC(CCCCCCCCCCCC)OP(=O)(O)O | > 100 µM | > 100 µM | > 100 µM | > 100 µM | > 100 µM | > 100 µM | > 100 µM | > 100 µM |  |  |  |  |  |  |  |  |  |  |  | 
O=C(O)[C@@H](NS(=O)(=O)c1ccc([N+](=O)[O-])cc1)c1ccccc1 | > 100 µM | > 100 µM | > 100 µM | > 100 µM | > 100 µM | > 100 µM |  | > 100 µM |  |  |  |  |  |  |  |  |  |  |  | 
CCOC(=O)C(C(=O)OCC)=c1sc(=C(C(=O)OCC)C(=O)OCC)s1 | > 100 µM | > 100 µM |  | > 100 µM |  | > 100 µM |  |  |  |  |  |  |  |  |  |  |  |  |  | 
CCCN1C(=O)CNC(=O)c2[nH]cnc21 | > 100 µM | > 100 µM | > 100 µM | > 100 µM | > 100 µM | > 100 µM | > 100 µM | > 100 µM |  |  |  |  |  |  |  |  |  |  |  | 
COc1cc(Nc2nc3cc(C(F)(F)F)ccc3nc2C)cc(OC)c1OC | 17.7 µM | 26.6 µM | 25.4 µM | 26.6 µM | 12.6 µM | 20.8 µM | 21.1 µM | 22.4 µM |  |  |  |  |  |  |  |  |  |  |  | 
C=C[C@H]1C=Cc2c(OC)cccc2[C@@H]1COP1(=S)NC(C)C(c2ccccc2)O1 (stereo partly drawn) | > 100 µM |  | > 100 µM | > 100 µM |  |  | > 100 µM | > 100 µM |  |  |  |  |  |  |  |  |  |  |  | 
c1ccc2c(CNCCCCCCCCCCCCNCc3cccc4ccccc34)cccc2c1 | 2.95 µM | 3.66 µM | 3 µM | 3.2 µM | 3.06 µM | 3.7 µM | 2.95 µM | 3.17 µM |  |  |  |  |  |  |  |  |  |  |  | 
Cc1ccc(N2C(=O)C(Cl)=C(Cl)C2=O)cc1 | > 100 µM | 33.7 µM | 64.2 µM | 34.8 µM | > 100 µM | 34.1 µM | 32.9 µM | > 100 µM |  |  |  |  |  |  |  |  |  |  |  | 
O=NN(CCCl)C(=O)N[C@H]1CCCC[C@@H]1Cl | > 100 µM | > 100 µM | > 100 µM | > 100 µM | > 100 µM | > 100 µM | > 100 µM | > 100 µM |  |  |  |  |  |  |  |  |  |  |  | 
CSC1(CC(=O)N2CCCCC2)C(=O)Nc2ccccc21 (stereo not drawn) | > 100 µM | > 100 µM | > 100 µM | > 100 µM | > 100 µM | > 100 µM | > 100 µM | > 100 µM | > 100 µM |  |  |  |  |  |  |  |  |  |  | 
COC(=O)[C@@]12C=CC(=O)[C@H]3C[C@@H](C(C(C)C)C1)[C@]32OC (stereo partly drawn) | > 100 µM | > 100 µM | > 100 µM | > 100 µM |  | > 100 µM | > 100 µM | > 100 µM |  |  |  |  |  |  |  |  |  |  |  | 
O=C(C=Nc1ccccc1C(=O)[O-])c1cccs1.O=C(C=Nc1ccccc1C(=O)[O-])c1cccs1.[Zn+2] | > 100 µM | > 10 µM | > 100 µM | > 100 µM | > 100 µM | > 100 µM | > 100 µM | 35.5 µM |  |  |  |  |  |  |  |  |  |  |  | 

SMILES | TGI [1] | TGI [2] | TGI [3] | TGI [4] | TGI [5] | TGI [6] | TGI [7] | TGI [8] | TGI [9] | GI50 [1] | GI50 [3] | GI50 [4] | GI50 [5] | GI50 [10] | TGI [10] | GI50 [6] | GI50 [7] | GI50 [8] | GI50 [2] | GI50 [9]
C/C(=C\c1ccn(-c2ccc(N)cc2F)n1)[C@@H]1C[C@@H]2O[C@]2(C)CCC[C@H](C)[C@H](O)[C@@H](C)C(=O)C(C)(C)[C@@H](O)CC(=O)O1 | > 50 µM |  | 0.296 µM | > 50 µM | > 50 µM | > 50 µM | > 50 µM | > 50 µM |  | 0.0197 µM | 0.0352 µM | 0.0212 µM | 0.176 µM | 0.132 µM | > 50 µM | 0.202 µM | 0.0169 µM | 0.0285 µM |  | 
CCCCCCCCCCCCCCCCCC[N+](C)(C)Cc1ccc(C[N+](C)(C)CCCCCCCCCCCCCCCCCC)cc1 | > 100 µM | > 100 µM |  | > 100 µM | 56.3 µM | 30.3 µM | 32.5 µM | 56.2 µM |  |  |  |  |  |  |  |  |  |  |  | 
CCOC(=O)NC1CC2CCC1(OC)C=C2C (stereo not drawn) | > 100 µM | > 100 µM | > 100 µM | > 100 µM | > 100 µM | > 100 µM | > 100 µM | > 100 µM |  |  |  |  |  |  |  |  |  |  |  | 
COC(=O)Cc1cc(=O)n2c([nH]c3ccccc32)c1C#N | > 100 µM | > 100 µM | > 100 µM | > 100 µM | > 100 µM | > 100 µM | > 100 µM | > 100 µM |  |  |  |  |  |  |  |  |  |  |  | 
C[CH2][Sn]([CH2]C)([O]C(=O)c1ccc(F)cc1)[O][Sn]([CH2]C)([CH2]C)[O]C(=O)c1ccc(F)cc1 | > 100 µM | 32 µM | > 100 µM | 45.5 µM | > 100 µM | > 100 µM | > 100 µM | > 100 µM |  | > 100 µM | 67.5 µM | 22.8 µM | > 100 µM |  |  | 79.8 µM | > 100 µM | 29.8 µM | 16.9 µM | 
C/C=C/C1=CN2C(=O)c3cc(OC4OC(C)C(NC)C(C)(O)C4O)c(C)c(O)c3N=C[C@@H]2C1 (stereo partly drawn) |  |  |  | 10.2 µM |  |  | 11.9 µM | 12.5 µM | 0.286 µM | 0.0376 µM and < 0.01 µM | 0.0743 µM and < 0.01 µM | 0.0951 µM and < 0.01 µM | 0.0926 µM and < 0.01 µM |  |  | 0.071 µM and < 0.01 µM |  | 0.043 µM and < 0.01 µM |  | 0.0819 µM
Cc1ccccc1NC(=O)c1ccc([N+](=O)[O-])cc1 | > 100 µM | > 100 µM | > 100 µM | > 100 µM | > 100 µM | > 100 µM | > 100 µM | > 100 µM |  |  |  |  |  |  |  |  |  |  |  | 
CC1=Nc2ccccc2C12C(c1ccccc1)C(c1ccccc1)C(=O)N1c3ccccc3CC12 (stereo not drawn) | > 100 µM | > 100 µM | > 100 µM | > 100 µM | > 100 µM | > 100 µM | > 100 µM | > 100 µM |  |  |  |  |  |  |  |  |  |  |  | 
FC(F)(F)c1nc(-c2ccccc2)oc1Sc1oc(-c2ccccc2)nc1C(F)(F)F | > 100 µM | > 100 µM | > 100 µM | > 100 µM | > 100 µM | > 100 µM | > 100 µM | > 100 µM |  |  |  |  |  |  |  |  |  |  |  | 
CCOC(=O)c1cc(OC(=O)CC)c2c(OC)ccc(OC)c2c1 | > 100 µM | > 100 µM | > 100 µM | > 100 µM | > 100 µM | > 100 µM | > 100 µM | > 100 µM |  |  |  |  |  |  |  |  |  |  |  | 
COc1ccc(C2CC(=O)c3c(O)c(OC)c(OC)c(OC)c3O2)cc1O (stereo not drawn) |  | > 100 µM | > 100 µM | > 100 µM | > 100 µM | > 100 µM | > 100 µM | > 100 µM |  | 0.195 µM | 0.0666 µM | 0.0418 µM | 2.18 µM | 0.625 µM | > 100 µM | 0.572 µM | 0.103 µM | 0.191 µM | 32.8 µM | 
CC(C)c1cccc(C(C)C)c1NC(=O)CCC(=O)NN | > 100 µM | > 100 µM | > 100 µM | 42.9 µM | > 100 µM | > 100 µM | > 100 µM | > 100 µM |  |  |  |  |  |  |  |  |  |  |  | 
Cc1c(CC/C(=N\Nc2ccc([N+](=O)[O-])cc2[N+](=O)[O-])c2ccccc2)c2ccccc2n1C | > 100 µM | > 100 µM | > 100 µM | > 100 µM | > 100 µM | > 100 µM | > 100 µM | > 100 µM |  |  |  |  |  |  |  |  |  |  |  | 
O=C(Cc1ccccc1)NS(=O)(=O)c1ccccc1 | > 100 µM | > 100 µM | > 100 µM | > 100 µM | > 100 µM | > 100 µM | > 100 µM | > 100 µM |  |  |  |  |  |  |  |  |  |  |  | 
c1ccc2c(c1)[nH]c1c2ncc2[nH]c3ccccc3c21 | 5.44 µM | 47.1 µM | 7.21 µM | 10.3 µM | 8.79 µM | 16.3 µM | 3.35 µM | 5.64 µM |  |  |  |  |  |  |  |  |  |  |  | 
COC(C)(C)[C@H](O)C(O)CC(C)[C@@H]1CCC23CC12CCC1[C@@]2(C)CCC(OC(C)=O)C(C)(C)C2CC(OC2OC(COC(C)=O)C(O)C(O)C2O)[C@]13C (stereo partly drawn) | 10.3 µM and 14.7 µM | 17.1 µM and 26 µM | 9.41 µM and 17.2 µM | 13.7 µM and 15.3 µM | 14.5 µM and 18.6 µM | 11.4 µM and 20 µM | 8.67 µM and 13.4 µM | 9.64 µM and 17.7 µM |  | 4.69 µM | 5.66 µM | 4.67 µM |  |  |  | 6.08 µM | 4.78 µM | 5.3 µM | 12.8 µM | 
